Like-named read-outs stand apart in the source and are kept apart here.
Legend:
Assay type in all cases: cell-based, human
MYB mRNA = assay: RT-qPCR splicing assay, MYB canonical junction (CJ) and alternative junction (AJ) mRNA; settings: Homo sapiens; for AC50: increase in MYB alternative junction (AJ) mRNA, read-out: MYB AJ AC50
How it was run: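 A673 or K562 cells were treated for 24 h at 37 °C with an 11-point 3-fold compound dilution series (top final concentration 10 uM, DMSO ≤0.25%). After lysis, one-step TaqMan RT-qPCR quantified junction transcripts, normalized to PPIA for A673 or to GAPDH/GUSB for K562.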

HTT = assay: HiBiT protein abundance assay, HTT HiBiT K562 cell line; settings: 24 hours, top dose 10 μM
How it was run: (§1)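 Endogenous targets in K562 knock-in lines carried a HiBiT tag and were treated for 24 h at 37 °C with 10-point 3-fold dilutions (top 10 μM final, DMSO ≤0.25%). Abundance was read as lytic Nano-Glo HiBiT luminescence. IC50 came from a four-parameter logistic fit of normalized response.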

MYB = assay: HiBiT protein abundance assay, MYB HiBiT K562 cell line; settings: 24 hours, top dose 10 μM
How it was run: as §1

[1] = Table 5 panel, canonical junction qPCR, compound concentration having 50% response in CJ decrease, read-out: MYB IC50 (decrease in CJ mRNA levels)
[2] = decrease in MYB canonical junction (CJ) mRNA, RT-qPCR, read-out: MYB CJ IC50
[3] = HiBiT K562 cell line, read-out: Effect on protein abundance, HTT (IC50 category)
[4] = HiBiT K562 cell line, read-out: Effect on protein abundance, MYB (IC50 category)
[5] = canonical junction qPCR panel, Table 5, read-out: MYB (decrease in CJ mRNA levels, IC50)
[6] = HiBiT lytic detection, modified K562 cells, read-out: Effect on protein abundance, HTT (IC50)
[7] = HiBiT lytic detection, modified K562 cells, read-out: Effect on protein abundance, MYB (IC50)

Row | Structure (SMILES) | IC50 (MYB mRNA; [1]) [nM] | IC50 (MYB mRNA; [2]) [nM] | AC50 (MYB mRNA; RT-qPCR) [nM] | IC50 (HTT; [3]) [nM] | IC50 (MYB; [4]) [nM] | IC50 (MYB mRNA; [5]) [nM] | IC50 (HTT; [6]) [nM] | IC50 (MYB; [7]) [nM]
1 | Cc1c(O)c(-c2ncc3c(=O)n(C4CCNCC4)cc(C)c3n2)cc2cn(C)nc12 [Compound 1191] | < 100 | < 100 | < 100 | 1000 to 10000 | 1000 to 10000 |  |  | 
2 | Cc1cn2cc(-c3ncc4c(=O)n([C@@H]5CCNC5)ccc4n3)cc(F)c2n1 [Compound 1228] | 100 to 1000 | 1000 to 10000 | 100 to 1000 | > 10000 | 100 to 1000 |  |  | 
3 | Cc1c(O)c(-c2ncc3c(=O)n([C@H]4CCN[C@@H](C)C4)ccc3n2)cc2cn(C)nc12 [Compound 1441, 2-(6-hydroxy-2,7-dimethyl-indazol-5-yl)-6-(2-methyl-4-piperidyl)pyrido[4,3-d]pyrimidin-5-one] |  | < 100 | < 100 | < 100 | < 100 | < 100 |  | 
4 | Cc1c(O)c(-c2ncc3c(=O)n(N4CCNCC4)ccc3n2)cc2cn(C)nc12 [Compound 1303] |  | < 100 | 100 to 1000 | 100 to 1000 | 100 to 1000 | 100 to 1000 |  | 
5 | Cn1cc2cc(-c3ncc4c(=O)n(C5CCNCC5)ccc4n3)c(O)cc2n1 [Compound 1211] | 100 to 1000 | < 100 | 100 to 1000 | 100 to 1000 | < 100 |  |  | 
6 | Cc1cc(-c2cc3ccn(C4CCN(CCO)CC4)c(=O)c3cn2)cc2cn(C)nc12 [Compound 1210, 6-(2.7-dimethyl-2H-indazol-5-yl)-2-(1-(2-hydroxyethyl)piperidin-4-yl)-2,7-naphthyridin-1(2H)-one] | 1000 to 10000 | 100 to 1000 | 1000 to 10000 | 1000 to 10000 | 1000 to 10000 |  |  | 
7 | Cc1c(O)c(-c2ccc3c(=O)n([C@@H]4CCNC4)ccc3n2)cc2cn(C)nc12 [Compound 1450, 2-(6-hydroxy-2,7-dimethyl-indazol-5-yl)-6-[(3R)-pyrrolidin-3-yl]-1,6-naphthyridin-5-one] |  | 100 to 1000 | 100 to 1000 | 1000 to 10000 | 100 to 1000 | 100 to 1000 |  | 
8 | Cc1c(O)c(-c2ncc3c(=O)n(C4CCN(C)CC4)ccc3n2)cc2cn(C)nc12 [Compound 1304] |  | 100 to 1000 | 100 to 1000 | 100 to 1000 | 100 to 1000 | 100 to 1000 |  | 
9 | Cc1c(O)c(-c2ncc3c(=O)n(C45CCC(N)(CC4)C5)ccc3n2)cc2cn(C)nc12 [Compound 1428] |  | 100 to 1000 | 100 to 1000 | 1000 to 10000 | < 100 | 100 to 1000 |  | 
10 | COc1c(-c2ccc3c(=O)n(C4CCNCC4)ccc3n2)cc2cn(C)nc2c1C [Compound 1243] |  | > 10000 | > 10000 | > 10000 | > 10000 | > 10000 |  | 
11 | Cn1cc2cc(-c3ccc4c(=O)n([C@@H]5CCNC6(CC6)C5)ccc4n3)c(O)cc2n1 [Compound 1246] |  | < 100 | < 100 | 100 to 1000 | 100 to 1000 | < 100 |  | 
12 | Cn1cc2ccc(-n3cnc4cc(NC5CCNCC5)ccc4c3=O)cc2n1 [Compound 204] | > 10000 | > 10000 | > 10000 | > 10000 | > 10000 |  |  | 
13 | Cc1c(O)c(-c2ncc3c(=O)n(C4CNC4)ccc3n2)cc2cn(C)nc12 [Compound 1305, 6-(azetidin-3-yl)-2-(6-hydroxy-2,7-dimethyl-indazol-5-yl)pyrido[4,3-d]pyrimidin-5-one] |  | 1000 to 10000 | 1000 to 10000 | > 10000 | 100 to 1000 | 1000 to 10000 |  | 
14 | Cc1c(O)c(-c2ncc3c(=O)n([C@H]4C[C@@H](N)C4)ccc3n2)cc2cn(C)nc12 [Compound 1431, 6-((1s,3s)-3-aminocyclobutyl)-2-(6-hydroxy-2,7-dimethyl-2H-indazol-5-yl)pyrido[4,3-d]pyrimidin-5(6H)-one] |  | 1000 to 10000 | 1000 to 10000 | 1000 to 10000 | 100 to 1000 | 1000 to 10000 |  | 
15 | Cc1c(O)c(-c2ncc3c(=O)n([C@@H]4C[C@@H](C)N[C@@H](C)C4)ccc3n2)cc2cn(C)nc12 [Compound 1453, 6-[(2S,6R)-2,6-dimethyl-4-piperidyl]-2-(6-hydroxy-2,7-dimethyl-indazol-5-yl)pyrido[4,3-d]pyrimidin-5-one] |  | 1000 to 10000 | 100 to 1000 | 1000 to 10000 | 100 to 1000 | 100 to 1000 |  | 
16 | Cc1c(O)c(-c2ncc3c(=O)n(C4C[C@H]5C[C@@H]4CN5)ccc3n2)cc2cn(C)nc12 (stereo in doubt) [Compound 1444, 6-[(1R,4R,5R)-2-azabicyclo[2.2.1]heptan-5-yl]-2-(6-hydroxy-2,7-dimethyl-indazol-5-yl)pyrido[4,3-d]pyrimidin-5-one] |  | 100 to 1000 | 100 to 1000 | 100 to 1000 | 100 to 1000 | 100 to 1000 |  | 

Row | Structure (SMILES) | IC50 (MYB mRNA; [1]) [nM] | IC50 (MYB mRNA; [2]) [nM] | AC50 (MYB mRNA; RT-qPCR) [nM] | IC50 (HTT; [3]) [nM] | IC50 (MYB; [4]) [nM] | IC50 (MYB mRNA; [5]) [nM] | IC50 (HTT; [6]) [nM] | IC50 (MYB; [7]) [nM]
17 | Cc1cn2cc(-c3ncc4c(=O)n([C@H]5CCNC5)ccc4n3)cc(F)c2n1 [Compound 1220] | 100 to 1000 | 100 to 1000 | 100 to 1000 | 100 to 1000 | 100 to 1000 |  |  | 
18 | Cc1cn2cc(-c3ccc4c(=O)n(C5CCNC5)ccc4n3)c(O)c(C)c2n1 (stereo not shown) [Compound 1302] |  | > 10000 | > 10000 | > 10000 | > 10000 | > 10000 |  | 
19 | Cc1cn2nc(-c3ccc4c(=O)n(C5CCNCC5)ncc4n3)cc(C)c2n1 [Compound 1247] |  | < 100 | < 100 |  |  | < 100 | < 100 | < 100
20 | Cc1c(O)c(-c2ncc3c(=O)n([C@@H]4C[C@H]5C[C@@H]4CN5)ccc3n2)cc2cn(C)nc12 [Compound 1445, 6-[(1R,4R,5R)-2-azabicyclo[2.2.1]heptan-5-yl]-2(6-hydroxy-2,7-dimethyl-indazol-5-yl)pyrido[4,3-d]pyrimidin-5-one] |  | > 10000 | 1000 to 10000 | > 10000 | 1000 to 10000 | 1000 to 10000 |  | 
21 | Cn1cc2cc(-c3ccc4c(=O)n(C5CCNC6(CC6)C5)ncc4n3)c(O)cc2n1 (stereo not shown) [Compound 1306] |  | 100 to 1000 | 100 to 1000 |  |  | 100 to 1000 | 100 to 1000 | 100 to 1000
22 | Cc1cc(-c2cc3ccn(C4CCN(C)CC4)c(=O)c3cn2)cc2cn(C)nc12 [Compound 1206, 6-(2,7-dimethyl-2H-indazol-5-yl)-2-(1-methylpiperidin-4-yl)-2,7-naphthyridin-1(2H)-one] | 100 to 1000 | 1000 to 10000 | 100 to 1000 | 1000 to 10000 | 100 to 1000 |  |  | 
23 | Cc1c(O)c(-c2ncc3c(=O)n(C4CCNC4)ccc3n2)cc2cn(C)nc12 (stereo not shown) [Compound 1222] | 100 to 1000 | 100 to 1000 | 100 to 1000 | > 10000 | < 100 |  |  | 
24 | Cc1cn2cc(-c3ncc4c(=O)n(C5CCNC5)ccc4n3)cc(C#N)c2n1 (stereo not shown) [Compound 1221] | 100 to 1000 | 100 to 1000 | 100 to 1000 | 100 to 1000 | 100 to 1000 |  |  | 
25 | Cn1cc2cc(-c3ccc4c(=O)n(C5CCNCC5)ccc4n3)cc(F)c2n1 [Compound 1231] |  | 100 to 1000 | 100 to 1000 | 100 to 1000 | 100 to 1000 | 100 to 1000 |  | 
26 | Cn1cc2cc(-c3cc4ccn(C5CCNCC5)c(=O)c4cn3)c(O)c(F)c2n1 [Compound 1199] | 1000 to 10000 | 100 to 1000 | 1000 to 10000 | 1000 to 10000 | 1000 to 10000 |  |  | 
27 | Cc1cn2nc(-c3ccc4c(=O)n(C5CCNCC5)ncc4c3)cc(C)c2n1 [Compound 186] | 100 to 1000 | 100 to 1000 | < 100 | 100 to 1000 | 100 to 1000 |  |  | 
28 | Cc1cn2cc(-c3cc4ccn(C5CCNC5)c(=O)c4cn3)cc(C#N)c2n1 (stereo not shown) [Compound 1214] | 1000 to 10000 | 1000 to 10000 | 1000 to 10000 | > 10000 | 1000 to 10000 |  |  | 
29 | CCN1CCC(n2ncc3nc(-c4cc(C)c5nc(C)cn5n4)ccc3c2=O)CC1 [Compound 1308] |  | 100 to 1000 | 100 to 1000 |  |  | 100 to 1000 | < 100 | 100 to 1000
30 | CCN1CCC(n2ncc3nc(-c4cc5cn(C)nc5cc4O)ccc3c2=O)CC1 [Compound 1310] |  | 1000 to 10000 | 1000 to 10000 |  |  | 1000 to 10000 | 1000 to 10000 | 1000 to 10000
31 | Cc1cn2nc(-c3ccc4c(=O)n([C@@H]5CCNC5)ccc4n3)cc(C)c2n1 [Compound 1438, 2-(2,8-dimethylimidazo[1,2-b]pyridazin-6-yl)-6-[(3R)-pyrrolidin-3-yl]-1,6-naphthyridin-5-one] |  | 100 to 1000 | 100 to 1000 | 1000 to 10000 | 100 to 1000 | 100 to 1000 |  | 
32 | Cc1cn2nc(-c3ccc4c(=O)n(C5CCN(CCF)CC5)ncc4n3)cc(C)c2n1 [Compound 1309] |  | 100 to 1000 | 100 to 1000 |  |  | 100 to 1000 | 100 to 1000 | 100 to 1000

Source: patent publication US20250332173A1, “COMPOUNDS AND METHODS FOR MODULATING NUCLEIC ACID SPLICING” (REMIX THERAPEUTICS INC., priority 2021, published 2025)
